Several values for one entry are separate records, joined by “and”; a condition that tells them apart may be missing. Identical values can stand only once.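 Interpolation was linear, between the two tested concentrations surrounding the appropriate level; five concentrations were tested over 48 hours in 96-well plates. Here, GI50 denotes the concentration required for 50% inhibition of growth. At the TGI there is no net growth.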
Legend:
Assay in all cases: NCI anticancer screen, dose series, 48 h
[1] = tested on: NCI-H226 lung
[2] = tested on: OVCAR-3 ovarian
[3] = tested on: SN12C renal
[4] = tested on: ACHN renal
[5] = tested on: MOLT-4 leukemia
[6] = tested on: SK-MEL-28 melanoma
[7] = tested on: OVCAR-5 ovarian
[8] = tested on: NCI-H460 lung
[9] = tested on: COLO 205 colon
[10] = tested on: TK-10 renal

SMILES	GI50 [1] [µM]	TGI [1]	GI50 [2] [µM]	TGI [2]	GI50 [3] [µM]	TGI [3]	GI50 [4] [µM]	TGI [4] [µM]	GI50 [5] [µM]	TGI [5]	GI50 [6] [µM]	TGI [6] [µM]	GI50 [7]	TGI [7] [µM]	GI50 [8] [µM]	TGI [8]	GI50 [9]	TGI [9] [µM]	GI50 [10] [µM]	TGI [10] [µM]
CC[N+](CCCCCCCCCC[N+](CC)(c1ccccn1)c1ccccn1)(c1ccccn1)c1ccccn1	2.04	22.3 µM	1.09	10.1 µM	0.431	11 µM	2.8	12.9	2.28	13.2 µM	2.48	15.2	1.86 µM	9.65	0.625	10.3 µM	1.78 µM	11.6	3.65	24.5
CN1CCN(CCSC2Cc3cc(Cl)ccc3Sc3ccccc32)CC1 (stereo unspecified)		31.4 µM		16.5 µM		23.7 µM		19.8		7.74 µM		3.5		18.2		16.1 µM		3.26		9.67
CC1=C2C(O)C(C(C)CO)C(O)CC2(C)C(O)CC1 (stereo unspecified)		> 100 µM		> 100 µM		> 100 µM		> 100		> 100 µM		> 100		> 100		> 100 µM		> 100		> 100
CC1=CSC2=NC(c3ccc(Cl)c(Cl)c3)=CC(c3ccc(Cl)cc3)N12 (stereo unspecified)	> 100	> 100 µM	> 100	> 100 µM	> 100	> 100 µM	> 100	> 100	> 100	> 100 µM	> 100	> 100	> 100 µM	> 100	> 100	> 100 µM	> 100 µM	> 100	> 100	> 100
COc1cc(C2c3cc4c(cc3[C@@H](Nc3ccc(C(=O)O)cc3)C3COC(=O)[C@H]23)OCO4)cc(OC)c1O (stereo partly specified)		15.8 µM and 13.9 µM		66.9 µM and > 17.5 µM		75.6 µM and > 17.5 µM		> 100		5.47 µM and 2.66 µM		> 100	48.3 µM and > 17.5 µM	> 100		17.6 µM and > 17.5 µM	26.8 µM and 12.9 µM	> 100		> 100
COc1ccc(NC(=O)C2C(=O)N(c3ccc(OC)cc3)C(=O)/C2=N/O)cc1 (stereo unspecified)		55.7 µM		> 59.9 µM		71.9 µM		43.2		> 100 µM		> 96.8		> 100		46.4 µM		> 100		52.3
CC(=O)CC1CCC(=O)CCC(=O)OC(CC(C)=O)CCC(=O)CCC(=O)O1 (stereo unspecified)		> 100 µM		> 100 µM		> 100 µM		> 100		> 100 µM		> 100		> 100		> 100 µM		> 100		> 100
Cc1nc2ccc(C(F)(F)F)cc2nc1Nc1ccc(Cl)c(Cl)c1		39.1 µM		26.9 µM		24.3 µM		23.4		48.2 µM		24.7		28.7		10.5 µM		11.9		31.7
Cc1nc(N)sc1C(=O)/C=C/c1ccc(/C=C/C(=O)c2sc(NC(=O)CCCCCCCCC(=O)Nc3nc(C)c(C(=O)/C=C/c4ccc(/C=C/C(=O)c5sc(N)nc5C)cc4)s3)nc2C)cc1				> 100 µM		> 100 µM		> 100		> 100 µM		> 100		> 100		> 100 µM		> 100		> 100

Reference: PubChem BioAssay (NCI)
